# Patent US12076340B2, “Use of trientine to deliver copper to ischemic tissue” (INNOLIFE CO., LTD., priority 2015, dated 2024)
# Legend:
# [1] = test system: mouse model of myocardial ischemic infarction; conditions: 4 weeks
# Description: (§1) In this experiment, a mouse model of myocardial ischemic infarction was established by a permanent coronary artery ligation operation.
# (§2) Trientine treatment was administered to four groups of modelized mice via intragastric route twice a day at a dose of 16.75, 33.49, 55.94, or 78.25 mg/kg per day. This treatment was continued for 4 weeks.
# Cardiac functions were evaluated by echocardiography to assess therapeutic efficacy of trientine. All mice were subjected to transthoracic echocardiographic evaluation with a 12 MHz transducer (i13L, Vivid7, GE Ultrasound). The ejection fraction (EF) of the left ventricular was evaluated with the Simpson's single-plane method. Left-ventricular end-diastolic volume (LVEDV) and end-systolic volume (LVESV) were directly recorded, and EF was calculated using as follows: EF=(LVEDV−LVESV)/LVEDV×100%.
# [2] = test system: Rhesus monkey model of heart failure; conditions: 18 mg/kg/day oral two times daily, eight weeks; untreated group decreased; FIG. 12
# Description: The ejection fraction (EF) of the left ventricular was evaluated with the Simpson's single-plane method. Left-ventricular end-diastolic volume (LVEDV) and end-systolic volume (LVESV) were directly recorded, and EF was calculated using as follows: EF=(LVEDV−LVESV)/LVEDV×100%.
# (§3) Trientine treatment was subsequently conducted. In the trientine-treated group, trientine was administered to each monkey orally two times daily. The dose of trientine was 18 mg/kg/day. This treatment was continued for eight weeks. […] Cardiac functions and morphology were evaluated according to the schedule shown in FIG. 11 to assess therapeutic efficacy of trientine.
# [3] = test system: Sprague-Dawley rats with pathologic cardiac hypertrophy
# Description: This example describes an in vivo experiment for assessing efficacy of the trientine therapy in Sprague-Dawley rats with pathologic cardiac hypertrophy. The rat model of pathologic cardiac hypertrophy was established by an ascending aortic constriction operation.
# The rats were sedated by intraperitoneal injection of 10% chloral hydrate ([…]) for echocardiography measurements. At 4 months after the aortic constriction operation and at 1, 3 and 5 weeks after the trientine treatment, a series of echocardiograms were performed using an 11.5-MHz transducer (Vivid 7 Dimension, GE). Interventricular septum depth (IVSD) and left ventricular posterior wall depth (LVPWD) were obtained using two-dimensional mode by taking measurements of the short-axis cross-sectional areas and the left ventricular length.
# The ejection fraction (EF) and shortening fraction (FS) of the left ventricular were evaluated with the Simpson's single-plane method. Left-ventricular end-diastolic volume (LVEDV), end-systolic volume (LVESV), end-diastolic interior diameter (LVIDd) and end-systolic interior diameter (LVIDs) were directly recorded. EF and FS were calculated according to the following formulas: EF=(LVEDV−LVESV)/LVEDV×100%, FS=(LVIDd−LVIDs)/LVIDd×100%
# (§4) The aortic ascending constriction (AAC) group was divided into three groups: a control group (NS group) and two trientine treatment groups (Tr(H) group and Tr(L) group). Rats in the sham group were subjected to the same surgical procedure except for the steps of the aortic ascending constriction. The sham group rats were also divided into three groups: a control group (NS group) and two trientine treatment groups (Tr(H) group and Tr(L) group). Rats in the control groups were treated with a saline solution. Trientine was administered orally twice a day in the trientine treatment groups. Two doses of trientine (dose calculated based on trientine dihydrochloride) were administered, […]. The treatment was continued for 6 weeks.
# (§5) Cardiac morphology and functions were evaluated by echocardiography, and plasma copper concentrations were measured (i.e. blood detection) to assess therapeutic efficacy of the trientine treatments according to the schedule shown in FIG. 7.
# [4] = test system: Rhesus monkey model of heart failure; conditions: 18 mg/kg/day oral, eight weeks; FIG. 13
# Description: as §3
# (§6) Tissue samples were freshly frozen and stored at −80° ° C. before lyophilization. […] Ultrapure water was added to each vessel to dilute HNO3 to 2% for subsequent analyses of copper concentrations. Copper concentrations were determined by graphite furnace atomic absorption spectrophotometry (ICE3500, Thermo) according to the program shown in Table 1 of Example 3.
# Copper concentration in the myocardium was determined by atomic absorption spectroscopy.
# [5] = test system: mouse model of myocardial ischemic infarction
# Description: as §1, §2
# as §6, with “−80°” for “−80° °”
# [6] = test system: Sprague-Dawley rats with pathologic cardiac hypertrophy; conditions: AAC rats, trientine treatment for 6 weeks, AAC-Tr(H) and AAC-Tr(L) combined; FIG. 10A
# Description: as §4, §5
# Tissue samples were freshly frozen and stored at −80° C. before lyophilization. […] Ultrapure water was added to each vessel to dilute HNO3 to 2% for subsequent analyses of copper concentrations.
# [7] = AAC rats, oral twice a day, after 3 weeks of treatment
compound,measurement,setting,value
"NCCNCCNCCN [trientine, triethylenetetramine]",dose at which the improvement ratio of ejection fraction reached a peak,"[1]; doses tested 16.75, 33.49, 55.94, 78.25 mg/kg per day",33.49 mg/kg per day
same,improvement of left ventricular ejection fraction at higher doses,"[1]; intragastric twice a day, FIG. 15",decreased
same,"cardiac function as measured by left ventricular ejection fraction, lower doses","[1]; intragastric twice a day, 16.75-78.25 mg/kg per day, FIG. 15",improved
same,left ventricular ejection fraction,[2],increased significantly
same,IVSD as compared to the sham groups,[3]; AAC rats treated for 5 weeks,nearly normal
same,LVPWD as compared to the sham groups,[3]; AAC rats treated for 5 weeks,nearly normal
same,interventricular septum depth (IVSD),[3]; [7],decreased significantly
same,left ventricular posterior wall depth (LVPWD),[3]; [7],decreased significantly
same,IVSD values over time (continuous monitoring),"[3]; treated AAC groups, control group increased steadily, FIG. 8A",significantly downward trend
same,LVPWD values over time (continuous monitoring),"[3]; treated AAC groups, control group increased steadily, FIG. 8B",significantly downward trend
same,left ventricular ejection fraction (EF),"[3]; trientine-treated groups, untreated groups showed significant downward trend, FIG. 9A",did not fluctuate very significantly
same,left ventricular shortening fraction (FS),"[3]; trientine-treated groups, untreated groups showed significant downward trend, FIG. 9B",did not fluctuate very significantly
same,"copper concentration, border zone, compared to untreated group",[4],increased significantly
same,"copper concentration, infarcted area, compared to untreated group",[4],increased significantly
same,"copper concentration, remote areas, treated vs untreated group",[4],comparable
same,dose at which copper content in the infarct area was the highest,"[5]; doses tested 16.75, 33.49, 55.94, 78.25 mg/kg per day, 4 weeks",33.49 mg/kg per day
same,copper content of the infarcted area or ejection fraction at higher doses than 33.49 mg/kg per day,"[5]; higher trientine doses tested (55.94, 78.25 mg/kg per day)",no further improvement
same,copper concentration in the infarcted area,"[5]; intragastric twice a day, 4 weeks, FIG. 16",increased significantly
same,copper concentrations in the heart tissues,[6],increased
